From article PMC6273342, “Cytotoxic Alkaloids from the Stem of Xylopia laevigata” (Molecules, 2016)
Where two headings read alike, the source gives them in different places.

Columns and labels:
[1] = test system: B16-F10 (mouse melanoma); assay: Alamar Blue cytotoxicity assay, B16-F10; assay type: cell-based; settings: 72 h incubation
From the text: (§1) Camargo, São Paulo, Brazil.

[2] = test system: HL-60 (human promyelocytic leukemia); assay: Alamar Blue cytotoxicity assay, HL-60; assay type: cell-based; settings: for IC50: Homo sapiens, HL-60, Alamar Blue, 72 h incubation, read-out: IC50 HL60
Experimental: (§3) B16-F10, HepG2, K562 and HL-60 tumor cell lines were kindly donated by Hospital A.C. […] Cells were maintained in RPMI 1640 medium (Gibco-BRL, Gaithersburg, MD, USA) with 10% fetal bovine serum (Cultilab, Campinas, Brazil), 2 mM L-glutamine (Vetec Química Fina, Duque de Caxias, Brazil) and 50 μg/mL gentamycin (Novafarma, Anápolis, Brazil). Adherent cells were collected by treatment with 0.25% trypsin-EDTA solution (Gibco-BRL). All cell lines were cultured in flasks at 37 °C in 5% CO2 and sub-cultured every 3–4 days to maintain exponential growth. All cell lines were tested for mycoplasma using a Mycoplasma Stain Kit (Sigma-Aldrich, St. Louis, MO, USA) to confirm that the cells were free from contamination.
(§4) Cell viability was quantified using the Alamar Blue assay, according to Ahmed et al. [23]. Cells were placed in 96-well plates for all experiments (0.7 × 10^5 cells/mL for adherent cells or 0.3 × 10^6 cells/mL for suspended cells in 100 μL of medium). After 24 h, the alkaloids (in a range of eight different concentrations varying from 0.19 to 25 μg/mL) were dissolved in dimethyl sulfoxide (DMSO, Sigma-Aldrich Co.), and the solution was added to each well and incubated for 72 h. […] Negative controls received the vehicle that was used for diluting the alkaloids (0.5% DMSO). Four (for cell lines) or 24 h (for PBMCs) before the end of incubation, 20 μL of a stock solution (0.312 mg/mL) of the Alamar Blue (resazurin, Sigma-Aldrich Co.) was added to each well. The absorbance at 570 nm and 600 nm was measured using a SpectraMax 190 Microplate Reader (Molecular Devices, Sunnyvale, CA, USA), and the drug effect was quantified as the percentage of control absorbance.

[3] = test system: K562 (human chronic myelocytic leukemia); assay: Alamar Blue cytotoxicity assay, K562; assay type: cell-based; settings: 72 h incubation
From the text: as §1

[4] = test system: peripheral blood mononuclear cells (PBMCs); assay: Alamar Blue cytotoxicity assay, non-tumor PBMCs; assay type: cell-based; settings: Homo sapiens, PBMC, 72 h incubation, ConA-stimulated PBMCs
Experimental: Heparinized blood was collected from 20- to 35-year-old, healthy non-smokers who had not taken any drugs for at least 15 days prior to sampling, and the peripheral blood mononuclear cells (PBMCs) were isolated using a Ficoll density gradient in a Ficoll-Paque Plus (GE Healthcare Bio-Sciences AB, Uppsala, Sweden). PBMCs were washed and resuspended at a concentration of 0.3 × 10^6 cells/mL in RPMI 1640 medium with 20% fetal bovine serum, 2 mM L-glutamine and 50 μg/mL gentamycin at 37 °C with 5% CO2. Concanavalin A (ConA, Sigma-Aldrich Co.) was used as a mitogen to trigger cell division in T-lymphocytes. ConA (10 μg/mL) was added at the beginning of culture, and the cells were treated with the test compounds after 24 h. Cell viability was examined using a trypan blue exclusion assay for all experiments. Over 90% of the cells were viable at the beginning of the culture. The Research Ethics Committee of the Oswaldo Cruz Foundation (Salvador, Bahia, Brazil) approved the experimental protocol (#031019/2013). All participants signed a written informed consent to participate in the study.

[5] = Alamar Blue cytotoxicity assay, summary over the tumor cell lines tested; settings: mouse (B16-F10); human (HepG2, K562, HL-60)
Experimental: as §3, §4

[6] = test system: HepG2 (human hepatocellular carcinoma); assay: Alamar Blue cytotoxicity assay, HepG2; assay type: cell-based; settings: 72 h incubation
From the text: as §1

[7] = test system: tumor cell lines B16-F10, HepG2, K562 and HL-60; assay: Alamar Blue cytotoxicity assay, summary over the tumor cell lines tested; settings: 72 h, read-out: IC50 in at least one of the tumor cell lines tested
Experimental: as §3, §4

[8] = test system: HepG2 cells; assay: Internucleosomal DNA fragmentation and cell cycle distribution (flow cytometry, propidium iodide), HepG2; assay type: cell-based, human; settings: HepG2, 24 h, 1 µg/mL
Experimental: (§2) The following set of experiments was performed to investigate the mechanisms involved in the cytotoxic action of the alkaloids lanuginosine and (+)-xylopine. In all experiments, 2 mL of a HepG2 cell solution (0.7 × 10^5 cells/mL) was placed in 24-well plates and incubated overnight to allow the cells to adhere to the plate surface. The cells were then treated for 24 h with the alkaloids lanuginosine (10 and 20 μg/mL) and (+)-xylopine (5 and 10 μg/mL). The negative control was treated with the vehicle (0.2% DMSO) used for diluting the alkaloids. […] Cell viability was assessed for all experiments using a Trypan Blue exclusion assay.
Cells were harvested in a lysis solution containing 0.1% triton X-100 (Sigma Chemical Co., St. Louis, MO, USA), 2 µg/mL propidium iodide (Sigma Chemical Co.), 0.1% sodium citrate and 100 µg/mL RNAse (Sigma Chemical Co.). Cell fluorescence was determined by flow cytometry on a BD LSRFortessa cytometer using BD FACSDiva Software (BD Biosciences) and Flowjo Software 10. Ten thousand events were evaluated per experiment and cellular debris was omitted from the analysis.

[9] = test system: HepG2 cells; assay: Annexin assay (phosphatidylserine externalization, flow cytometry), HepG2; assay type: cell-based, human; settings: HepG2, 24 h
Experimental: as §2
Phosphatidylserine externalization was analyzed by flow cytometry. A FITC annexin V apoptosis detection kit (BD Biosciences, San Jose, CA, USA) was used to determine cell viability (viable, early apoptotic, late apoptotic and necrotic cells). Cells were washed twice with saline and then resuspended in 100 μL of binding buffer with 5 μL of propidium iodide and 5 μL of FITC annexin V. The cells were gently mixed on a vortexer and incubated for 15 min at room temperature (20–25 °C) in the dark. Afterwards, 400 μL of binding buffer was added to each tube and the cells were analyzed by flow cytometry on a BD LSRFortessa cytometer using BD FACSDiva Software (BD Biosciences) and Flowjo Software 10 (Flowjo LCC, Ashland, OR, USA). Ten thousand events were evaluated per experiment and cellular debris was omitted from the analysis.

[10] = test system: HepG2 cells; assay: Morphological analysis with May-Grünwald-Giemsa staining, HepG2; assay type: cell-based, human; settings: HepG2, 24 h; lanuginosine 10 and 20 μg/mL, (+)-xylopine 5 and 10 μg/mL
Experimental: as §2
To evaluate alterations in morphology, cells were cultured under a coverslip, fixed with methanol for 30 s and stained with May-Grünwald-Giemsa stain. Morphological changes were examined by light microscopy (Olympus BX41, Tokyo, Japan) using Image-Pro software (Media Cybernetics, Rockville, MD, USA).

[11] = test system: HepG2 cells; assay: Trypan Blue dye exclusion, HepG2; assay type: cell-based, human; settings: HepG2, 24 h, lanuginosine 10 and 20 μg/mL, (+)-xylopine 5 and 10 μg/mL
Experimental: as §2

[12] = test system: HepG2 cells; assay: Acridine Orange/ethidium bromide staining, fluorescence microscopy, HepG2; assay type: cell-based, human; settings: HepG2, 24 h, p < 0.05
Experimental: as §2
Cells were pelleted and resuspended in saline (25 μL). Then, 1 μL of aqueous solution of AO/EB (100 μg/mL, Sigma-Aldrich Co.) was added, and the cell viability changes were observed under a fluorescence microscope (Olympus BX41). In this assay, AO permeates all cells and makes the nuclei appear green. EB is only taken up by cells when the cytoplasmic membrane integrity is lost and stains the nucleus red. EB also dominates over AO. Thus, live cells have a normal green nucleus; early apoptotic cells have a bright green nucleus with condensed or fragmented chromatin; late apoptotic cells display condensed and fragmented orange chromatin; cells that have died from direct necrosis have a structurally normal orange nucleus. Three hundred cells were counted per sample and classified as viable, apoptotic or necrotic.

| SMILES | IC50 [1] [µg/mL] | IC50 [2] [µg/mL] | IC50 [3] [µg/mL] | IC50 [4] [µg/mL] | IC50 at 72 h [5] [µg/mL] | IC50 [6] [µg/mL] | IC50 ([1]; value in brackets) [µM] | IC50 ([2]; value in brackets) [µM] | IC50 ([3]; value in brackets) [µM] | IC50 [7] [µg/mL] | IC50 ([6]; value in brackets) [µM] | other results |
| --- | --- | --- | --- | --- | --- | --- | --- | --- | --- | --- | --- | --- |
| COc1cc2c(cc1O)CC1c3c(cc(OC)c(OC)c3-2)CCN1C (single isomer, unassigned; (+)) [(+)-N-Methyllaurotetanine, (+)-N-methyllaurotetanine] | > 25 | > 25 | > 25 | > 25 | > 25 | > 25 |  |  |  |  |  |  |
| COc1cc2c(cc1O)CCN1Cc3c(ccc(O)c3OC)CC21 (single isomer, unassigned; (+)) [(+)-Discretamine, (+)-discretamine] | 18.8 | 10.1 | 10.6 | > 25 |  | 14 | 57.3 | 30.8 | 32.4 | < 20 | 42.8 |  |
| COc1cc2c(cc1OC)CN1CCc3cc(OC)c(OC)cc3[C@@H]1C2 [(−)-Xylopinine, (−)-xylopinine] | > 25 | > 25 | > 25 | > 25 | > 25 | > 25 |  |  |  |  |  |  |
| CN1CCc2cc3c(c4c2[C@H]1Cc1ccccc1-4)OCO3 [(−)-Roemerine, (−)-roemerine] | > 25 | > 25 | > 25 | > 25 | > 25 | > 25 |  |  |  |  |  |  |
| COc1ccc(CC2c3cc(O)c(OC)cc3CCN2C)cc1O (single isomer, unassigned; (+)) [(+)-Reticuline, (+)-reticuline] | > 25 | 23.8 | > 25 | > 25 |  | 15.3 |  | 72.1 |  | < 20 | 46.5 |  |
| COc1cc2c(cc1O)CCN1Cc3cc(OC)c(OC)cc3C[C@@H]21 [(+)-Discretine, (+)-discretine] | 16.1 | 13 | 14.8 | > 25 |  | 7.89 | 47.2 | 37.9 | 43.4 | < 20 | 23.1 |  |
| COc1cc2c(cc1O)C[C@@H]1NCCc3cc(OC)c(OC)c-2c31 [(+)-Laurotetanine, (+)-laurotetanine] | > 25 | > 25 | > 25 | > 25 | > 25 | > 25 |  |  |  |  |  |  |
| c1ccc2c(c1)C[C@H]1NCCc3cc4c(c-2c31)OCO4 [(+)-Anonaine, (+)-anonaine] | 18.8 | 10.1 | 10.6 | > 25 |  | 14 | 70.7 | 37.9 | 39.9 | < 20 | 52.8 |  |
| COc1cc2c(cc1OC)-c1c(OC)c(OC)cc3ccnc(c13)C2=O [Oxoglaucine, oxoglaucine] | 19.1 | 5.9 | 12.5 | 10.2 |  | > 25 | 54.4 | 16.8 | 35.5 | < 20 |  | IC50 ([4]; value in brackets): 29.1 µM |
| COc1cc(O)c2c(c1)C[C@@H]1NCCc3cc4c(c-2c31)OCO4 [(+)-Calycinine, (+)-calycinine] | 22.2 | 18.6 | > 25 | > 25 |  | > 25 | 71 | 59.6 |  | < 20 |  |  |
| COc1cccc2c1C(=O)c1c(O)c3c(c(O)c1C2=O)C[C@@](O)(C(=O)CO)C[C@@H]3O[C@H]1C[C@H](N)[C@H](O)[C@H](C)O1 [Doxorubicin, doxorubicin, reference compound] | 0.08 | 0.09 | 0.15 | 2.47 |  | 0.08 | 0.15 |  | 0.28 |  | 0.15 | Cell Cycle Phases (%) S ([8]; NC 16.11 ± 1.89): 12.00 ± 1.43 %; Cell Cycle Phases (%) G2/M ([8]; NC 19.93 ± 6.12): 61.94 ± 5.52 %; IC50 ([4]; value in brackets): 4.54 µM; apoptotic characteristics in the cells ([9]; doxorubicin 1 μg/mL, positive control): induced apoptotic characteristics |
| COc1ccc2c(c1)C(=O)c1nccc3cc4c(c-2c13)OCO4 [Lanuginosine, lanuginosine] | 8.46 | 7.81 | 6.61 | 24.5 |  | 3.89 | 27.6 | 25.5 | 21.6 | < 4 | 12.7 | selectivity index (SI) ([2]; SI = IC50[PBMC]/IC50[HL-60]): 3.1; cell morphology [10]: morphology consistent with apoptosis, including chromatin condensation and fragmentation of the nuclei; IC50 ([4]; value in brackets): 80.1 µM; phosphatidylserine exposure ([9]; p < 0.05, without affecting the cell membrane integrity): significant increase in phosphatidylserine exposure; number of non-viable cells [11]: without increasing the number of non-viable cells; number of viable cells ([11]; p < 0.05): reduce the number of viable cells; percentage of necrotic cells (AO/EB) ([12]; at the higher concentration): significantly increased the percentage of necrotic cells; number of apoptotic cells (AO/EB) ([12]; lanuginosine 10 and 20 μg/mL, (+)-xylopine 5 and 10 μg/mL): increased number of apoptotic cells |
| COc1cc2c(cc1OC)-c1c(OC)c(OC)c(OC)c3c1C(C2)NCC3 (single isomer, unassigned; (+)) [(+)-Norpurpureine, (+)-norpurpureine] | 21.1 | 10.1 | 16.7 | 17.9 |  | > 25 | 56.6 | 27.2 | 44.9 | < 20 |  | IC50 ([4]; value in brackets): 48.2 µM |
| COc1cc2c(cc1O)CC1c3cc(OC)c(OC)cc3CCN1C2 (single isomer, unassigned; (-)) [(−)-Corytenchine, (−)-corytenchine] | > 25 | > 25 | > 25 | > 25 | > 25 | > 25 |  |  |  |  |  |  |
| COc1cc2c(cc1OC)-c1c(OC)c(OC)cc3c1[C@H](C2)N(C)CC3 [(+)-Glaucine, (+)-glaucine] | > 25 | > 25 | > 25 | > 25 | > 25 | > 25 |  |  |  |  |  |  |
| COC1=C[C@]23CCN(C)[C@H](Cc4cc(OC)c(O)cc42)C3=CC1=O [(+)-Flavinantine, (+)-flavinantine] | > 25 | > 25 | > 25 | > 25 | > 25 | > 25 |  |  |  |  |  |  |
